Experiments:
[1] = assay type: physicochemical
Source text: The invention will now be described with reference to some non-limiting specific embodiments. The invention will first be illustrated in reference to the attached drawings to be followed by a more detailed description below. Turning to FIG. 1, there are shown two different phase diagrams (1A and 1B) of ternary systems comprising oil/water/surfactant according to the prior art. Such a ternary system forms microemulsions. As a function of the relative amounts of each of the three components one may achieve a two-phase or a mono-phase liquid concentrate comprising of the microemulsion where the boundaries of the stable phases depend on the relative concentration of each component. […] A two-phase region at equilibrium, at 35, prevails at all other concentrations of the ternary system. […] A one phase stable isotropic region exists at 65. Turning to FIG. 2, a general ternary phase diagram 80 describing the nano-sized self-assembled structured concentrates of the present invention, A rather small two-phase concentrate region 90 and a large stable one-phase at 100 region are present. A micellar concentrate of the nano-sized self-assembled structures exists at 110, i.e. there is no aqueous phase. Adding a small amount of aqueous phase results in an oil continuous phase, which is actually water in oil (W/O) region at 120A, 120B and 120C along the tree dilution lines. Addition of an increasing amount of aqueous solution results in a bi-continuous region at 130A, 130B and 130C along the three dilution lines. At the point where the amount of aqueous solution is greater than that of the oil phase there exists an aqueous continuous phase, which is actually an oil in water (O/W) region generally at 140A, 140B and 140C along the three dilution lines. Direct micelles exist only at the extreme at 150. It should be noted that along each concentration line as the concentration of the surfactant increases, the oil continuous phase may decrease is size while the bicontinuous and water continuous phases may increase in size. Turning to FIG. 3, a ternary phase diagram 170 describing another nanosized-structured concentrate of the present invention is shown. The oil phase, which is the desired solvent for achieving a single-phase system, is α-tocopherol acetate. The aqueous system comprises of water and a co-solvent—propylene glycol. As shown, a major portion of the four-component system is in one stable region 180, while only a minor portion 190 is a two-phase system. Phase diagrams, solubilization factors and efficiency of solubilization for lycopene, phytosterol and lutein in ternary systems according to lo the present invention are given in FIGS. 4–6. […] It should be noted that the ratio between each of the components of the oil phase to the surfactant is 1:3. […] As shown, upon further dilution with water, tie solubilization of lycopene drops over the dilution factor. In case the system is diluted from 67% water to 80% water, the dilution factor (from inversion) is 80/67=1.19. The solubilization on the other hand decreases by a factor of 450/312.5=1.44. This indicates structural change in the nano-sized self-assembled concentrates. Turning to FIG. 4C, the efficiency of the solubilization in the described system is represented (α). The efficiency factor, α, is defined as lycopene/oil(wt/wt)X 100. As shown, the maximum solubilization on an oil base is 0.8 wt %. […] Tuming to FIG. 4D, there is shown the solubilization capacity of the lycopene as a function of the nature of the surfactant system. As shown, for the case where the surfactant is Tween 60, the efficiency factor (solubilization based on the oil phase) is 0.8 wt %. However, this value is increased to 1.05, 1.1, 1.1 and 1.16 (wt %) for the cases where the surfactant is ethoxylated monoglycerides (EM), triglycerol monooleate (TM), sugar ester (SE), and a mixture of SE+EM, respectively. It should be noted that such efficiency factors are equivalent to a solubilization factor of up to 25 fold. […]

[2] = Solubility of lycopene in oil (oil dissolution capacity); assay type: physicochemical
Source text: The invention will now be described with reference to some non-limiting specific embodiments. The invention will first be illustrated in reference to the attached drawings to be followed by a more detailed description below. Turning to FIG. 1, there are shown two different phase diagrams (1A and 1B) of ternary systems comprising oil/water/surfactant according to the prior art. Such a ternary system forms microemulsions. As a function of the relative amounts of each of the three components one may achieve a two-phase or a mono-phase liquid concentrate comprising of the microemulsion where the boundaries of the stable phases depend on the relative concentration of each component. […] A two-phase region at equilibrium, at 35, prevails at all other concentrations of the ternary system. […] A one phase stable isotropic region exists at 65. Turning to FIG. 2, a general ternary phase diagram 80 describing the nano-sized self-assembled structured concentrates of the present invention, A rather small two-phase concentrate region 90 and a large stable one-phase at 100 region are present. A micellar concentrate of the nano-sized self-assembled structures exists at 110, i.e. there is no aqueous phase. Adding a small amount of aqueous phase results in an oil continuous phase, which is actually water in oil (W/O) region at 120A, 120B and 120C along the tree dilution lines. […]

## CC1=C[C@H](O)CC(C)(C)[C@H]1/C=C/C(C)=C/C=C/C(C)=C/C=C/C=C(C)/C=C/C=C(C)/C=C/C1=C(C)C[C@@H](O)CC1(C)C [free lutein]
[1]
  Concentration (%) of free lutein: 0.006%

## CC1=C[C@H](O)CC(C)(C)[C@H]1/C=C/C(C)=C/C=C/C(C)=C/C=C/C=C(C)/C=C/C=C(C)/C=C/C1=C(C)C[C@@H](O)CC1(C)C [lutein]
[1]
  Aqueous solution concentration at which maximum solubilization occurs (bi continuous region): 40 to 60%
  Increase of solubilization capacity over aqueous or oil phase alone or with surfactant: 7-20 fold
  Solubilization in the oil in water (O/W) region: limited solubilization

## CC(C)=CCC/C(C)=C/C=C/C(C)=C/C=C/C(C)=C/C=C/C=C(C)/C=C/C=C(C)/C=C/C=C(\C)CCC=C(C)C [lycopene]
[1]
  Concentration (%) of lycopene: 0.02%
  Efficiency factor α, lycopene/oil (wt/wt) x 100, maximum solubilization on an oil base: 0.8 wt %
  Factor of decrease of solubilization on dilution: 1.44
  Increase of solubilization capacity over aqueous or oil phase alone or with surfactant: 7-20 fold
  Maximum solubility (solubility capacity) in 1 Kg of nano-sized self-assembled structured concentrate: 450 mg
  Maximum solubilization: 0.45 % (wt)
  Solubility capacity in 1 Kg of concentrate after dilution: 312.5 mg
  Solubilization factor: up to 25 fold
  Solubilization relative to the oil dissolution capacity: up to 17.7 fold
[2]
  Solubility of lycopene in oil: ca. 0.045 wt %

## lutein ester
[1]
  Concentration (%) of lutein ester: 0.047%

## phytosterol
[1]
  Concentration (%) of phytosterol: 1.0%
  Efficiency factor α, phytosterol/oil (wt/wt) x 100, maximum solubilization on an oil base: 16.7 wt %
  Increase of solubilization capacity over aqueous or oil phase alone or with surfactant: 7-20 fold
  Maximum solubilization: 1.65 % (wt)
  Maximum solubilization in 1 Kg of nano-sized self-assembled structured concentrate: 165 mg
  Solubilization decrease factor on dilution: 3.6
  Solubilization factors: 6, 7
  Solubilization in 1 Kg of concentrate after dilution: 45 mg

— US7182950B2, “Nano-sized self-assembled liquid dilutable vehicles” (Nutralease Ltd., priority 2002, dated 2007)
